CC(=O)Nc1ccc(CC(=O)O)cc1
solubility (mole fraction)
Conditions	278.15 K	283.15 K	288.15 K	293.15 K	298.15 K	303.15 K	308.15 K	313.15 K	318.15 K
in 2-butanone	0.00496	0.00586	0.00689	0.00821	0.00975	0.0115	0.0137	0.0162	0.0192
in acetone	0.00366	0.00441	0.00534	0.00646	0.0078	0.00942	0.0114	0.0136	0.0161
in acetonitrile	0.00093	0.00116	0.00142	0.00175	0.00215	0.00262	0.00318	0.00381	0.00455
in cyclohexane	–	1.89e-06	2.51e-06	3.4e-06	4.44e-06	5.83e-06	7.44e-06	9.5e-06	1.21e-05
in ethanol	0.0062	0.00723	0.00851	0.0102	0.0121	0.0143	0.0171	0.0201	0.0238
in ethyl acetate	0.000627	0.000783	0.000985	0.00126	0.00156	0.00193	0.00238	0.00291	0.00357
in isopropanol	0.00293	0.00353	0.00437	0.0054	0.00666	0.00823	0.0101	0.0123	0.0149
in methanol	0.00792	0.00927	0.0113	0.0138	0.0169	0.0207	0.0249	0.0303	0.0369
in n-butanol	0.00401	0.0048	0.0058	0.00711	0.00871	0.0105	0.0126	0.0149	0.0178
in n-propanol	0.00538	0.00628	0.00745	0.00889	0.0105	0.0126	0.0149	0.0175	0.0204
in toluene	2.62e-06	3.44e-06	4.5e-06	5.88e-06	7.6e-06	9.71e-06	1.24e-05	1.59e-05	2.04e-05
in water	0.000163	0.000208	0.000264	0.000336	0.000421	0.000534	0.000661	0.000826	0.00104

Reference: BigSolDB 2.1
